Here are results for 2 compounds from patent US8058442B2 (Technion Research and Development Foundation Ltd., priority 2002, dated 2011).

Molecules are shown by their SMILES. Where two headings read alike, the source gives them in different places.

A short description of experiment [1]: Iron chelation in solution: fluorescence dequenching of iron-quenched calcein. Particulars: Fe-CAL in HBS pH 7.4, room temperature, 1 h incubation, read-out: half maximal dequenching level. As for the experimental part:
Iron binding was determined by the chelator capacity for restoring the fluorescence of iron-quenched calcein (CAL), a dynamic fluorescent metallosensor. The iron-scavenging properties of the chelators were assessed in solution, by mixing iron salts with free CAL.
Iron precomplexed calcein (Fe-CAL) solutions of 1 μm (in Hepes 20 mM buffered saline, pH 7.4=HBS) were incubated in the presence of the indicated concentrations of different chelators at room temperature and the fluorescence intensity (475 nm->520 nm) followed with time in a Tecan fluorescence plate reader, using 96-well culture plates (Nunc) at 100 μl final volume. The time-dependent complexation of iron from Fe-CAL by the chelators was followed by fluorescence dequenching. The fluorescence intensity attained after 1 h incubation is shown as a function of the chelator concentration.
The corresponding half maximal dequenching level for the corresponding chelator was (in μM) (rank order from the fastest acting to the slowest): […]

Experiment [2] deals with human erythroleukemia K562 cells. The experiment can be described thus: Iron permeation of the chelators into calcein-loaded K562 cells. Particulars: 5 μM chelator, 37° C. The class given is cell-based. As for the experimental part: The iron-scavenging properties of the chelators were assessed in human erythroleukemia K562 cells, by loading with the permeant CAL-AM probe, in situ formation of free CAL, and binding of cytosolic labile iron. Calcein-AM readily passes through the cell membrane of viable cells because of the enhanced hydrophobicity as compared to Calcein. When Calcein-AM permeates into the cytoplasm, it is hydrolyzed by esterases in cells to the parent Calcein, a pH-independent, cytosolic fluorescent marker, which remains inside of the cell. The time-dependent recovery of fluorescence in the presence of a given chelator provided a continuous measure for the capacity of the chelator to access the iron/CAL-containing compartment.
Calcein uptake and intracellular fluorescence were determined as follows: K562 erythroleukemia cells were preloaded with calcein (CAL) by incubation with […] of the fluorescent probe CAL-AM for 5 min at 37° C., washed and incubated in HBS medium containing anti-CAL antibodies in order to quench traces of extracellular-associated fluorescence. The suspensions were placed in 96-well plates (100 μl final volume) and analyzed as described above while maintaining the system at 37° C. At the indicated time, the indicated chelator was added so as to reach a final 5 μM concentration.
The values of half maximal time (sec) and fraction of fluorescence recovery were: […]

The target in the next experiment is T1, rat brain MAO-A (Rattus norvegicus, UniProt P21396).
T1 construct: from tissue; host or cells: rat brain homogenate, 4500 g pellet
T1 sequence (P21396 1-526): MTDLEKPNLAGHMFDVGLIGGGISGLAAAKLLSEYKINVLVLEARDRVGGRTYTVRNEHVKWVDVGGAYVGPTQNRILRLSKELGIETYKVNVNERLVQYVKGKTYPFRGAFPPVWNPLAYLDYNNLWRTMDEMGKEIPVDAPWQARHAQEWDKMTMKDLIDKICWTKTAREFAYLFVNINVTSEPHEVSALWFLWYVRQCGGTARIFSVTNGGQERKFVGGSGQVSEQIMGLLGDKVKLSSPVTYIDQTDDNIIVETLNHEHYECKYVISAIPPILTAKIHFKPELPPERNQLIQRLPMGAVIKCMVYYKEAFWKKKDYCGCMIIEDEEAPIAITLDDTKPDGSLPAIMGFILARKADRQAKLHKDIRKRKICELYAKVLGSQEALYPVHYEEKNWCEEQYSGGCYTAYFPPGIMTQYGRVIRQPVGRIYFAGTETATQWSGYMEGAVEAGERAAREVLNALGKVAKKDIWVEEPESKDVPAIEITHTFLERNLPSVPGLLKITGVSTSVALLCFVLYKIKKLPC
The experiment is described as follows: In vitro inhibition of rat brain MAO-A. The class given is biochemical. Particulars: read-out: inhibition of MAO-A. How it is done: (§1) Rats were decapitated and the brains were quickly taken into a weighted ice-cold sucrose buffer (0.32 M), and their weights were determined. All subsequent procedures were performed at 0-4° C. The brains were homogenized in 0.25 M sucrose (one part tissue to 20 parts sucrose) in a Teflon glass homogenizer followed by the addition of sucrose buffer to a final concentration of 10% homogenate. The homogenates were centrifuged at 600 g for 15 min. The supernatant fraction was taken out and centrifuged at 4500 g for 30 min, the pellet was diluted in 0.32 M sucrose buffer and kept frozen for later assaying of MAO. Protein concentration was determined with Bradford reagent at 595 nm, using bovine serum albumin as a standard.
(§2) The test compound was added to a suitable dilution of the enzyme preparation (70 μg protein for MAO-B and 150 μg MAO-A assay) in 0.05 M phosphate buffer (pH 7.4). The mixture was incubated together with […], a specific inhibitor of MAO-B (for determination of MAO-A) or […] clorgylin, a specific inhibitor of MAO-A (for determination of MAO-B). Incubation was carried for 1 h at 37° C. before addition of ^14C-5-hydroxytryptamine binoxalate ([…]) for determination of MAO-A, or ^14C-phenylethylamine 100 µM for determination of MAO-B, and incubation continued for 30 min or 20 min, respectively. The reaction was stopped with 2 M ice-cold citric acid, and the metabolites were extracted and determined by liquid-scintillation counting in cpm units.
(§3) MAO-A and MAO-B activities were determined in rat brain homogenate in vitro following incubation with varying concentrations of the test compounds.
In another experiment, the in vitro inhibitory activity of HLA20, M32, VK-28, M30, M31, and propargylamine (P) was tested against rat brain MAO-A. The test compounds were added to buffer containing 10^−7M deprenyl and were incubated with the tissue homogenate for 60 min at 37° C. before addition of ^14C-5-hydroxytryptamine. MAO-A activity in presence of the test compound was expressed as a percentage of that in control samples.

Another experiment deals with T2, rat brain MAO-B (Rattus norvegicus, UniProt P19643).
T2 construct: from tissue; host or cells: rat brain homogenate, 4500 g pellet
T2 sequence (P19643 1-520): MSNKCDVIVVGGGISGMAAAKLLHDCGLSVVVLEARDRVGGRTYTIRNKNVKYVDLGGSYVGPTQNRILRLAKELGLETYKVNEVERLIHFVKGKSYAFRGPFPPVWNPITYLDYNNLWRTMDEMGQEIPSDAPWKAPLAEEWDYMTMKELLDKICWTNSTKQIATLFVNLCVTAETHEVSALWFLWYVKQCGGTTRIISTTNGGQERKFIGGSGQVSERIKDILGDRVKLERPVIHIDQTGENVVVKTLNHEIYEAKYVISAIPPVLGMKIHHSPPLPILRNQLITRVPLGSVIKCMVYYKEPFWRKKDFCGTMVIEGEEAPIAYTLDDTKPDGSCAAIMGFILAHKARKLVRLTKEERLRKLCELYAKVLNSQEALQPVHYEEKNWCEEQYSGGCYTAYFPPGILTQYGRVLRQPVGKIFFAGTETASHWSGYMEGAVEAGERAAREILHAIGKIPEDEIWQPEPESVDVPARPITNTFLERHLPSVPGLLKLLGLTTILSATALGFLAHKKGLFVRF
The experiment is described as follows: In vitro inhibition of rat brain MAO-B. Format: biochemical. Particulars: read-out: inhibition of MAO-B. As for the experimental part: as §1, §2, §3
MAO-B activity in presence of the test compound was expressed as a percentage of that in control samples.

With `C#CCN1CCN(Cc2ccc(O)c3ncccc23)CC1` [HLA20, 5-(4-propargylpiperazin-1-ylmethyl)-8-hydroxyquinoline], the EC50 in experiment [1] (FIG. 1A) is 3.5 µM; in experiment [1] (FIG. 1B), 5.4 µM. In addition, the half maximal time in experiment [2] (FIG. 2A) was 175 s; in experiment [2] (FIG. 2B), 390 s. Also, the values for the inhibition at 100 µM on rat brain MAO-A and on rat brain MAO-B were 26.1% and 42%, respectively.

Take `OCCN1CCN(Cc2ccc(O)c3ncccc23)CC1` [VK-28, 5-[4-(2-hydroxyethyl)piperazin-1-ylmethyl]-8-hydroxyquinoline, reference compound]: the values for the EC50 in experiment [1] (FIG. 1B) and in experiment [1] (FIG. 1C) were 5.2 µM and 3.2 µM, respectively. Further, the half maximal time in experiment [2] (FIG. 2B) was 1250 s; in experiment [2] (FIG. 2C), 1500 s. For the same compound, the inhibition at 100 µM on rat brain MAO-A (100 μM) was 15.1%; at rat brain MAO-B (100 μM) it was 13.3%.

One may read the inhibition as the share of the control response that was lost under treatment.
